# Data as given in PMC7055300, “Theileria parasites subvert E2F signaling to stimulate leukocyte proliferation” (Scientific Reports, 2020).
# “Also recorded” adds a separate entry of the source.
# Experiments:
# [1] = test system: uninfected BL20 cells; assay: Cell proliferation, uninfected B cells (BL20), hemacytometer count; assay type: cell-based, bovine; settings: uninfected BL20, HLM006474 10 μM in DMSO, average of 3 independent experiments
# Method: (a) TpMD409B.2 cells were transfected with E2F-luc (WT = wild-type E2F binding construct), or mutated E2F-luc constructs (labeled ‘mutated’) together with a CMV-lacZ plasmid to normalize for transfection efficiency. Luciferase and β-galactosidase activities were measured 24 hrs after transfection. E2F-luc relative luciferase activity normalized to mE2F-luc. Shown is the average of 3 independent experiments with standard deviation. BL20 or TBL20 cells were treated with (b) 1μM of penetrating peptides ([…]-K(FITC)) containing the TpGcpE LXCXE motif, or an LXNXE control ([…]-K(FITC)) or (c) E2F inhibitor or DMSO control, and then counted by hemacytometer after the indicated timepoints. Shown is the average of 3 independent experiments with standard deviation. Then, either (d) virulent Ode T. annulata-transformed macrophages, or (e) BL20/TBL20 T. annulata-transformed cells were transfected with E2F-luc plasmid (or mutated E2F-luc as in (c)) and incubated for 24 hrs at 37 °C. Then, cells were treated with penetrating peptides as in (b) for 2 hrs and luciferase activity was quantified. Data shown are representative of three independent experiments done with biological duplicates, with mean + standard deviation (*P-value < 0.05 compared to untreated; ^‡P-value < 0.05 compared to its respective BL20 control). […]
# [2] = test system: BL20/TBL20 cells; assay type: cell-based, bovine; settings: HLM006474 10 μM; data not shown
# Method: Since the LXCXE peptide can induce E2F activity, we investigated whether it could, on its own, increase bovine leukocyte proliferation. To extend our observations to T. annulata-infected leukocytes, we incubated T. annulata-infected B cells with WT or mutated LXNXE peptides and counted cell numbers at 24 h and 48 h.
# The amino acid sequence of RB-1 based on the parasite sequence ([…]) was synthesized. Cysteine in wild type RB1 was replaced by an Asparagine (N; in bold […]). The penetrating peptide to facilitate cell entry is underlined. 3 different concentrations of peptides were used for 2 h to determine the minimum effective concentration (1 μM) with minimum toxic effect, which was used to perform each experiment as indicated.
# [3] = test system: T. annulata-infected TBL20 cells; assay: Cell proliferation, T. annulata-infected B cells (TBL20), hemacytometer count; assay type: cell-based, bovine; settings: T. annulata-infected TBL20, HLM006474 10 μM in DMSO, average of 3 independent experiments
# Method: (a) TpMD409B.2 cells were transfected with E2F-luc (WT = wild-type E2F binding construct), or mutated E2F-luc constructs (labeled ‘mutated’) together with a CMV-lacZ plasmid to normalize for transfection efficiency. Luciferase and β-galactosidase activities were measured 24 hrs after transfection. E2F-luc relative luciferase activity normalized to mE2F-luc. Shown is the average of 3 independent experiments with standard deviation. BL20 or TBL20 cells were treated with (b) 1μM of penetrating peptides ([…]-K(FITC)) containing the TpGcpE LXCXE motif, or an LXNXE control ([…]-K(FITC)) or (c) E2F inhibitor or DMSO control, and then counted by hemacytometer after the indicated timepoints. Shown is the average of 3 independent experiments with standard deviation. Then, either (d) virulent Ode T. annulata-transformed macrophages, or (e) BL20/TBL20 T. annulata-transformed cells were transfected with E2F-luc plasmid (or mutated E2F-luc as in (c)) and incubated for 24 hrs at 37 °C. Then, cells were treated with penetrating peptides as in (b) for 2 hrs and luciferase activity was quantified. Data shown are representative of three independent experiments done with biological duplicates, with mean + standard deviation (*P-value < 0.05 compared to untreated; ^‡P-value < 0.05 compared to its respective BL20 control).
# The TpMD409.B2 cell line is a T. parva Muguga-infected B-cell clone (B2) whose establishment, phenotypic characteristics and culture conditions have been described[25]–[27]. BL20 cells are a retrovirus-transformed B cell line isolated from an infected cow. To eliminate the parasite, cells were treated for the indicated time with buparvaquone (50 ng/ml, 1 mg/ml stock in ethanol; Sigma). To inhibit E2F activity, cells were treated for the indicated time with HLM006474 (10 μM in DMSO, Sigma), or DMSO (10μM; Sigma) as a control. The T. annulata-infected cell lines BL20 (B cell), as well as Ode (macrophage) cell lines are well described and characterized.
# The amino acid sequence of RB-1 based on the parasite sequence ([…]) was synthesized. Cysteine in wild type RB1 was replaced by an Asparagine (N; in bold […]). The penetrating peptide to facilitate cell entry is underlined.
# [4] = test system: T. parva-transformed TpMD409.B2 cells; assay: Flow cytometric BrdU incorporation; assay type: cell-based, bovine; settings: untreated vs buparvaquone-treated, 24 h and 48 h
# Description: The discovery of these peptides led us to investigate the particular RB/E2F signaling components in Theileria-infected cells. Eight E2F transcription factor genes have been identified in mammals, which can be divided into two groups: activators (E2F-1, E2F-2, E2F-3a), which can bind RB, and repressors (e.g. E2F-3b, E2F-4, E2F-5), which can bind RB, p107 and p130. The balance between the activator and repressor E2Fs seems to be primarily controlled by the phosphorylation status of the associated pocket proteins to which they bind. E2F interactions with the Dimerization Partner (DP) ligands are also important for regulating E2F transcription factor activity. We used Western blot to compare the levels of RB family, E2F, and DP-1 protein between T. parva-transformed cells that were left untreated with those treated with buparvaquone to kill the parasite and induce an arrest in host cell proliferation. By comparing expression levels between the buparvaquone-treated and untreated groups, we can determine parasite-dependent changes in the expression levels of these proteins. […]
# Figure 2 RB/E2F signaling is activated by Theileria parasites. (a) Western blot analysis (left) of E2F-1, E2F-3 E2F-4, DP-1, pRB, and p130 expression in TpMD409B.2 cells, either left untreated (−), or treated (+) for 24 h and 48 h with buparvaquone (BQ), including band intensity quantification (right). […]
# [5] = test system: T. parva-transformed TpMD409.B2 cells; assay: Western blot of RB/E2F pathway proteins after parasite killing; assay type: cell-based, bovine; settings: buparvaquone 50 ng/ml
# Description: The discovery of these peptides led us to investigate the particular RB/E2F signaling components in Theileria-infected cells. Eight E2F transcription factor genes have been identified in mammals, which can be divided into two groups: activators (E2F-1, E2F-2, E2F-3a), which can bind RB, and repressors (e.g. E2F-3b, E2F-4, E2F-5), which can bind RB, p107 and p130. The balance between the activator and repressor E2Fs seems to be primarily controlled by the phosphorylation status of the associated pocket proteins to which they bind. E2F interactions with the Dimerization Partner (DP) ligands are also important for regulating E2F transcription factor activity. We used Western blot to compare the levels of RB family, E2F, and DP-1 protein between T. parva-transformed cells that were left untreated with those treated with buparvaquone to kill the parasite and induce an arrest in host cell proliferation. By comparing expression levels between the buparvaquone-treated and untreated groups, we can determine parasite-dependent changes in the expression levels of these proteins. […] These faster migrating bands likely correspond to hypophosphorylated, proliferation-suppressive forms of RB and p130, at 24 h and 48 h after treatment with buparvaquone.
# Figure 2 RB/E2F signaling is activated by Theileria parasites. (a) Western blot analysis (left) of E2F-1, E2F-3 E2F-4, DP-1, pRB, and p130 expression in TpMD409B.2 cells, either left untreated (−), or treated (+) for 24 h and 48 h with buparvaquone (BQ), including band intensity quantification (right). Shown are representatives of three independent experiments. (b) E2F DNA binding activity in TpMD409B.2 cells was assayed by EMSA using gP32- labeled double-stranded oligonucleotide spanning E2F binding sites from the dhfr gene promoter. Left panel, nuclear extracts from TpMD409B.2 cells were incubated with γP32-labeled probe in absence or presence of a 100 fold molar excess of unlabeled wild type (WT), or mutated (MUT) double-stranded oligonucleotide. Binding reactions were resolved by non-denaturing polyacrylamide gel, which was processed afterwards for autoradiography. Right panel, EMSA analysis of E2F DNA binding activity in nuclear extracts from untreated, proliferating TpMD409B.2 cells (−) and TpMD409B.2 cells treated for 24 and 48 h with the parasiticidal drug buparvaquone (+). Arrows indicate E2F in complex with RB family proteins (Complexes) or free E2F protein (Free). (c) Flow cytometric analysis of BrdU incorporation and DNA content in TpMD409B.2 cells, either left untreated (control), or treated with buparvaquone for 24 h and 48 h. Shown is a representative of three independent experiments. […]
# [6] = test system: E2F binding sites from the dhfr gene promoter; TpMD409.B2 nuclear extracts; assay: E2F DNA binding activity by EMSA; assay type: cell-based, bovine; settings: buparvaquone 50 ng/ml, 24 h and 48 h
# Method: (a) Western blot analysis (left) of E2F-1, E2F-3 E2F-4, DP-1, pRB, and p130 expression in TpMD409B.2 cells, either left untreated (−), or treated (+) for 24 h and 48 h with buparvaquone (BQ), including band intensity quantification (right). Shown are representatives of three independent experiments. (b) E2F DNA binding activity in TpMD409B.2 cells was assayed by EMSA using gP32- labeled double-stranded oligonucleotide spanning E2F binding sites from the dhfr gene promoter. Left panel, nuclear extracts from TpMD409B.2 cells were incubated with γP32-labeled probe in absence or presence of a 100 fold molar excess of unlabeled wild type (WT), or mutated (MUT) double-stranded oligonucleotide. Binding reactions were resolved by non-denaturing polyacrylamide gel, which was processed afterwards for autoradiography. […]
# [7] = target: T1, Retinoblastoma-1 (RB) pocket domain (Homo sapiens, UniProt P06400); assay: Surface plasmon resonance binding to RB pocket domain; settings: SPR, RB pocket domain on sensor chip; sequence-scrambled peptides as negative controls
# T1 construct: Recombinant, purified RB pocket domain was coupled to the surface of the sensor chip; purchased LDBiopharma HTF-1035
# T1 sequence (P06400 373-771 limits assumed): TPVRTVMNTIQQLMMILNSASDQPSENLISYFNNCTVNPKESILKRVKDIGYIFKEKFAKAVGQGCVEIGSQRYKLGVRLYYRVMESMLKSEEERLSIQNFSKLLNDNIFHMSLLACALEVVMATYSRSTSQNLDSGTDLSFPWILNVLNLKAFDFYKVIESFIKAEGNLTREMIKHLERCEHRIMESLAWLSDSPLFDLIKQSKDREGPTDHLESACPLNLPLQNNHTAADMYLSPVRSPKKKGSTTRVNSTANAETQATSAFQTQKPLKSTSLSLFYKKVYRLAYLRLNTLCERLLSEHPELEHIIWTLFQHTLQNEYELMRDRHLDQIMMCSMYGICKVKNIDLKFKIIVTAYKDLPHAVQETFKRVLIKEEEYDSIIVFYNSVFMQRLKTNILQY
# Description: Since the proliferation of T. parva-infected host cells is thought to be critical for the pathogenesis of infection, we investigated whether synthesized peptides, each 9 to 19 amino acids long and containing these 15 T. parva motifs, could bind to RB (Supplementary Table 1). Surface plasmon resonance (SPR) was used to screen these peptides for specific RB1 pocket domain-binding activity. Recombinant, purified RB pocket domain was coupled to the surface of the sensor chip, and purified peptides were introduced at various concentrations to quantify kinetics if response curves indicated a detectable protein-protein interaction. Sequence-scrambled peptides were used as negative controls to exclude false-positive signals.
# Immobilization of human RB1 protein to CM5 chip
# Surface preparation. […]
# Kinetics analysis of binding. […] The analytes (60 µl each, 0–25 µM in HBS-EP buffer with 0.05% P20) were injected into flow cell and the association of analyte and ligand were recorded respectively by surface plasmon resonance (SPR) with a Biacore T200 (Biacore, Inc., New Jersey). […]
# Data analysis. Sensorgrams of the interaction generated by the instrument were analyzed using the software BIAeval 3.2 (Biacore Inc., New Jersey). […]
molecule,measurement,setting,value
"CCOc1ccc(C(Nc2ccccn2)c2ccc3ccc(C)nc3c2O)cc1C (stereo not shown) [HLM006474, reference compound]",proliferation with E2F inhibitor,[1],not uninfected BL20 cells
same,proliferation with E2F inhibitor,[1]; listed as HLM0006474,not uninfected bovine B cell lines
same,dependence of the effect on cell death,[2],not dependent on cell death
same,proliferation with E2F inhibitor,[3],specifically reduced the proliferation of T. annulata-infected TBL20 cells
same,proliferation with E2F inhibitor,[3]; listed as HLM0006474,specifically inhibit the proliferation of T. annulata-infected
CC(C)(C)[C@H]1CC[C@H](CC2=C(O)C(=O)c3ccccc3C2=O)CC1 [buparvaquone],"proliferation, dependence on the parasite",[4],Proliferation was also confirmed to be dependent on the parasite
same,pRB and p130 migration,"[5]; 24 h and 48 h, vs untreated",migrate faster in parasite-killed TpMD409.B2 cells than in untreated cells
same,E2F-4 protein levels,[5]; 48 h,E2F-4 levels remain unaltered
same,slower-migrating DP-1 band,[5]; 48 h,a slower-migrating DP-1 band increases
same,E2F-1 and E2F-3 protein levels,[5]; after 48 h but not 24 h,E2F-1 and E2F-3 protein levels decrease
same,E2F DNA binding activity,[6],overall decrease in E2F DNA binding activity
same,slow and intermediate complexes bound to E2F-dependent promoter,[6],increase in complexes migrating at slow and intermediate speed bound to an E2F-dependent promoter
"RDELQGVIQLLYDRYNKYI [TpMuguga_02g02355, SPR screening peptide […] with an LXXLFD motif from TpMuguga_02g02355]",RB binding in words,[7],bound the RB pocket domain with nanomolar affinity; also recorded: bind RB in a sequence-specific fashion
